In ChEMBL document CHEMBL1153944, “Exploration of click reaction for the synthesis of modified nucleosides as chitin synthase inhibitors” (Bioorg Med Chem, 2009):
In brackets after ≈: the same amount, converted by molar mass.

Legend:
Fusarium oxysporum = assay: Antifungal activity against Fusarium oxysporum by broth microdilution test; format: functional, organism-based
Cryptococcus neoformans = assay: Antifungal activity against Cryptococcus neoformans by broth microdilution test; format: functional, organism-based
Candida albicans = assay: Antifungal activity against Candida albicans by broth microdilution test; format: functional, organism-based
Benjaminiella poitrasii [1] = assay: Antifungal activity against Benjaminiella poitrasii assessed as inhibition of germ tube formation at 4 ug/mL after 6 hrs; format: functional
Benjaminiella poitrasii [2] = assay: Antifungal activity against Benjaminiella poitrasii at 4 ug/mL by standard broth microdilution technique; format: functional
Benjaminiella poitrasii [3] = assay: Inhibition of chitin synthase activity in Benjaminiella poitrasii at 4 ug/mL

Row | SMILES | MIC90 (Fusarium oxysporum) | MIC90 (Cryptococcus neoformans) | IC50 (Candida albicans) | MIC90 (Candida albicans) | inhibition at 4 µg/mL (Benjaminiella poitrasii [1]) | IC50 (Fusarium oxysporum) | inhibition at 4 µg/mL (Benjaminiella poitrasii [2]) | IC50 (Cryptococcus neoformans) | inhibition (Benjaminiella poitrasii [3])
1 | OC(Cn1cncn1)(Cn1cncn1)c1ccc(F)cc1F [FLUCONAZOLE] | 8 µg/mL (≈ 26.1 µM) | 32 µg/mL (≈ 104 µM) | 14 µg/mL (≈ 45.7 µM) | 32 µg/mL (≈ 104 µM) | – | – | – | – | –
2 | CC1(C)O[C@@H]2[C@H](O1)[C@@H](Cn1cc(COC(=O)Cc3ccccc3)nn1)O[C@H]2n1ccc(=O)[nH]c1=O | 32 µg/mL (≈ 66.2 µM) | 31 µg/mL (≈ 64.1 µM) | 18 µg/mL (≈ 37.2 µM) | 32 µg/mL (≈ 66.2 µM) | 75% | 16 µg/mL (≈ 33.1 µM) | 31.9% | 18 µg/mL (≈ 37.2 µM) | 71%
3 | C[C@@H]([C@H](N)C(=O)N[C@H](C(=O)O)[C@H]1O[C@@H](n2ccc(=O)[nH]c2=O)[C@H](O)[C@@H]1O)[C@H](O)c1ccc(O)cn1 [NIKKOMYCIN] | 8 µg/mL (≈ 16.1 µM) | 30 µg/mL (≈ 60.6 µM) | 32 µg/mL (≈ 64.6 µM) | 64 µg/mL (≈ 129 µM) | > 95% | 6 µg/mL (≈ 12.1 µM) | 45.5% | 16 µg/mL (≈ 32.3 µM) | 96.6%
4 | CC1(C)O[C@@H]2[C@H](O1)[C@@H](Cn1cc(COC(=O)Cc3ccc(Cl)cc3Cl)nn1)O[C@H]2n1ccc(=O)[nH]c1=O | > 128 µg/mL | 64 µg/mL (≈ 116 µM) | 32 µg/mL (≈ 57.9 µM) | > 128 µg/mL | 57.1% | > 128 µg/mL | 38.6% | 32 µg/mL (≈ 57.9 µM) | 67%
5 | CC1(C)O[C@@H]2[C@H](O1)[C@@H](Cn1cc(COC(=O)Cc3ccc(O)cc3)nn1)O[C@H]2n1ccc(=O)[nH]c1=O | 57 µg/mL (≈ 114 µM) | > 128 µg/mL | > 128 µg/mL | > 128 µg/mL | 61.5% | 35 µg/mL (≈ 70.1 µM) | 28.2% | 128 µg/mL (≈ 256 µM) | 73.4%
6 | CC1(C)O[C@@H]2[C@H](O1)[C@@H](Cn1cc(COC(=O)COc3ccccc3)nn1)O[C@H]2n1ccc(=O)[nH]c1=O | 33 µg/mL (≈ 66.1 µM) | > 128 µg/mL | 64 µg/mL (≈ 128 µM) | > 128 µg/mL | 52.5% | 16 µg/mL (≈ 32 µM) | 56.2% | 128 µg/mL (≈ 256 µM) | 74%
7 | CC1(C)O[C@@H]2[C@H](O1)[C@@H](Cn1cc(COc3cccc4ccccc34)nn1)O[C@H]2n1ccc(=O)[nH]c1=O | 64 µg/mL (≈ 130 µM) | 64 µg/mL (≈ 130 µM) | 34 µg/mL (≈ 69.2 µM) | > 128 µg/mL | 72.7% | 32 µg/mL (≈ 65.1 µM) | 32.4% | 32 µg/mL (≈ 65.1 µM) | 76.9%
8 | COc1ccc(OCc2cn(C[C@H]3O[C@@H](n4ccc(=O)[nH]c4=O)[C@@H]4OC(C)(C)O[C@@H]43)nn2)cc1 | 124 µg/mL (≈ 263 µM) | 49 µg/mL (≈ 104 µM) | 16 µg/mL (≈ 33.9 µM) | 24 µg/mL (≈ 50.9 µM) | 71.4% | 70 µg/mL (≈ 148 µM) | 29.3% | 35 µg/mL (≈ 74.2 µM) | 68.5%
9 | CC1(C)O[C@@H]2[C@H](O1)[C@@H](Cn1cc(COC(=O)CCl)nn1)O[C@H]2n1ccc(=O)[nH]c1=O | 16 µg/mL (≈ 36.2 µM) | > 128 µg/mL | 32 µg/mL (≈ 72.4 µM) | 66 µg/mL (≈ 149 µM) | 60% | 8 µg/mL (≈ 18.1 µM) | 30.2% | 125 µg/mL (≈ 283 µM) | 75.7%
10 | Cc1ccccc1CC(=O)OCc1cn(C[C@H]2O[C@@H](n3ccc(=O)[nH]c3=O)[C@@H]3OC(C)(C)O[C@@H]32)nn1 | > 128 µg/mL | 64 µg/mL (≈ 129 µM) | 18 µg/mL (≈ 36.2 µM) | 32 µg/mL (≈ 64.3 µM) | 67.2% | 64 µg/mL (≈ 129 µM) | 27.3% | 32 µg/mL (≈ 64.3 µM) | 36.4%
11 | CC1(C)O[C@@H]2[C@H](O1)[C@@H](Cn1cc(COc3ccc(Cl)cc3)nn1)O[C@H]2n1ccc(=O)[nH]c1=O | 32 µg/mL (≈ 67.2 µM) | 57 µg/mL (≈ 120 µM) | 18 µg/mL (≈ 37.8 µM) | 32 µg/mL (≈ 67.2 µM) | 58.1% | 16 µg/mL (≈ 33.6 µM) | 34.6% | 30 µg/mL (≈ 63 µM) | 95.1%
12 | CC1(C)O[C@@H]2[C@H](O1)[C@@H](Cn1cc(COc3ccccc3)nn1)O[C@H]2n1ccc(=O)[nH]c1=O | > 128 µg/mL | 8 µg/mL (≈ 18.1 µM) | 68 µg/mL (≈ 154 µM) | > 128 µg/mL | 45.1% | 128 µg/mL (≈ 290 µM) | 21.5% | 4 µg/mL (≈ 9.06 µM) | 77.2%
13 | CC1(C)O[C@@H]2[C@H](O1)[C@@H](Cn1cc(COc3ccc(F)cc3)nn1)O[C@H]2n1ccc(=O)[nH]c1=O | > 128 µg/mL | 128 µg/mL (≈ 279 µM) | 9 µg/mL (≈ 19.6 µM) | > 128 µg/mL | 64.7% | 128 µg/mL (≈ 279 µM) | 9.43% | 64 µg/mL (≈ 139 µM) | 84.1%
14 | Cc1cccc(OCc2cn(C[C@H]3O[C@@H](n4ccc(=O)[nH]c4=O)[C@@H]4OC(C)(C)O[C@@H]43)nn2)c1 | 64 µg/mL (≈ 141 µM) | 64 µg/mL (≈ 141 µM) | 34 µg/mL (≈ 74.6 µM) | 128 µg/mL (≈ 281 µM) | 69.2% | 32 µg/mL (≈ 70.3 µM) | 34.4% | 8 µg/mL (≈ 17.6 µM) | 82.1%
15 | C[C@@H]1[C@H](O)[C@@H](C)/C=C/C=C/C=C/C=C/C=C/C=C/C=C/[C@H](O[C@@H]2O[C@H](C)[C@@H](O)[C@H](N)[C@@H]2O)C[C@@H]2O[C@](O)(C[C@@H](O)C[C@@H](O)[C@H](O)CC[C@@H](O)C[C@@H](O)CC(=O)O[C@H]1C)C[C@H](O)[C@H]2C(=O)O [AMPHOTERICIN B] | 16 µg/mL (≈ 17.3 µM) | 16 µg/mL (≈ 17.3 µM) | – | 2 µg/mL (≈ 2.16 µM) | – | – | – | – | –
16 | CC1(C)O[C@@H]2[C@H](O1)[C@@H](Cn1cc(COC(=O)C(=O)c3ccccc3)nn1)O[C@H]2n1ccc(=O)[nH]c1=O | 106 µg/mL (≈ 213 µM) | > 128 µg/mL | > 128 µg/mL | > 128 µg/mL | 72% | 55 µg/mL (≈ 111 µM) | 51.5% | 16 µg/mL (≈ 32.2 µM) | 80%
17 | CC1(C)O[C@@H]2[C@H](O1)[C@@H](Cn1cc(COc3ccc([N+](=O)[O-])cc3)nn1)O[C@H]2n1ccc(=O)[nH]c1=O | 64 µg/mL (≈ 132 µM) | 32 µg/mL (≈ 65.8 µM) | > 128 µg/mL | > 128 µg/mL | 78.2% | 32 µg/mL (≈ 65.8 µM) | 17.4% | 14 µg/mL (≈ 28.8 µM) | 77.8%
